Source: patent US20250026752A1, “POSITIVE ALLOSTERIC MODULATORS OF THE MUSCARINIC ACETYLCHOLINE RECEPTOR M4” (Vanderbilt University, priority 2021, published 2025)

Target: T1, human mAChR M4 (Homo sapiens, UniProt P08173)
T1 construct: expressed in transfected cells; host or cells: CHO-K1 (ATCC), stably expressing hM4 and Gqi5
T1 sequence (P08173 1-479): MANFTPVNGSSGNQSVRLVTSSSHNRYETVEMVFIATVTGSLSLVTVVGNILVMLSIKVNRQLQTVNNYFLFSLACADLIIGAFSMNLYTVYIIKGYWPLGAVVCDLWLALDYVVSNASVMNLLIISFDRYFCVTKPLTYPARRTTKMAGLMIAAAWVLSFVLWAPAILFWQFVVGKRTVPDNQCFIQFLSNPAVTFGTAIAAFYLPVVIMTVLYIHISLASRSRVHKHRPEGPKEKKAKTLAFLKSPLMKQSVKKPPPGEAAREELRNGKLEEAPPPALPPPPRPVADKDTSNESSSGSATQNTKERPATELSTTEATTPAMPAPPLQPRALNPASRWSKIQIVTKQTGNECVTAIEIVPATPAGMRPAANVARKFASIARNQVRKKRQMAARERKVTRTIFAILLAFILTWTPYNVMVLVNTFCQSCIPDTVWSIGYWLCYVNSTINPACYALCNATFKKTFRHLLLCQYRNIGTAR
Assay: mAChR M4 cell-based functional assay: calcium flux (Fluo-4, FDSS), positive allosteric modulator activity on the EC20 acetylcholine response, hM4-Gqi5 CHO-K1 cells
Settings: for Emax at 30 µM: CHO-K1, human M4, % ACh maximum at 30 μM; for EC50: human M4, PAM activity on EC20 acetylcholine response, calcium flux, read-out: Human M4 EC50
Procedure, shortened: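 CHO-K1 cells stably expressing human M4 with chimeric Gqi5, loaded with Fluo-4 AM for 50 min at 37° C. Compounds (11-point, 1:3 dilutions) added first, then an acetylcholine EC20 at 144 s; calcium read on FDSS at 1 Hz. EC50 is the half-maximal increase above the EC20 baseline, four-parameter logistic fit.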

SMILES | Emax at 30 µM [%] | EC50 [nM]
Cc1ccc2ncnc(N3CCc4ncc(N5CCOc6ncccc65)cc4C3)c2c1 [Compound 92, 1-[6-(6-methylquinazolin-4-yl)-7,8-dihydro-5H-1,6-naphthyridin-3-yl]-2,3-dihydropyrido[2,3-b][1,4]oxazine] | 122 | 120
C[C@@H]1CN(c2ncnc3ccc(Cl)cc23)Cc2cc(N3CCOCC3)cnc21 [Compound 260, (R)-4-(6-(6-chloroquinazolin-4-yl)-8-methyl-5,6,7,8-tetrahydro-1,6-naphthyridin-3-yl)morpholine] | 107 | 120
COc1ccc2ncnc(N3CCc4ncc(-c5cc(F)ccc5C)cc4C3)c2c1 [Compound 297, 4-(3-(5-fluoro-2-methylphenyl)-7,8-dihydro-1,6-naphthyridin-6(5H)-yl)-6-methoxyquinazoline] | 101 | 1550
Fc1ccc2ncnc(N3CCc4ncc(N5CCOc6ncccc65)cc4C3)c2c1 [Compound 76, 1-[6-(6-fluoroquinazolin-4-yl)-7,8-dihydro-5H-1,6-naphthyridin-3-yl]-2,3-dihydropyrido[2,3-b][1,4]oxazine] | 98 | 30
c1cnc2nc(N3CCCC3)nc(N3CCc4ncc(N5CCCn6nccc65)cc4C3)c2c1 [Compound 246, 4-(3-(6,7-dihydropyrazolo[1,5-a]pyrimidin-4(5H)-yl)-7,8-dihydro-1,6-naphthyridin-6(5H)-yl)-2-(pyrrolidin-1-yl)pyrido[2,3-d]pyrimidine] | 63 | 50
CN1CCN(c2cnc3c(c2)CN(c2ncnc4cc(F)c(F)cc24)CC3)CC1=O [Compound 273, 4-(6-(6,7-difluoroquinazolin-4-yl)-5,6,7,8-tetrahydro-1,6-naphthyridin-3-yl)-1-methylpiperazin-2-one] | 84 | 880
Fc1ccc2ncnc(N3CCc4ncc(Nc5cccnc5F)cc4C3)c2c1 [Compound 82, N-(2-fluoro-3-pyridyl)-6-(6-fluoroquinazolin-4-yl)-7,8-dihydro-5H-1,6-naphthyridin-3-amine] | 104 | 70
CC(C)(O)CNc1nc(N2CCc3ncc(N4CCCn5nccc54)cc3C2)c2cccnc2n1 [Compound 247, 1-((4-(3-(6,7-dihydropyrazolo[1,5-a]pyrimidin-4(5H)-yl)-7,8-dihydro-1,6-naphthyridin-6(5H)-yl)pyrido[2,3-d]pyrimidin-2-yl)amino)-2-methylpropan-2-ol] | 80 | 370
COc1ccc2ncnc(N3CCc4ncc(-c5cn(C)nc5C)cc4C3)c2c1 [Compound 13, 4-[3-(1,3-dimethylpyrazol-4-yl)-7,8-dihydro-5H-1,6-naphthyridin-6-yl]-6-methoxy-quinazoline] | 109 | 370
Cc1noc(C)c1-c1cnc2c(c1)CN(c1ncnc3cc(F)c(F)cc13)CC2 [Compound 240, 4-(6-(6,7-difluoroquinazolin-4-yl)-5,6,7,8-tetrahydro-1,6-naphthyridin-3-yl)-3,5-dimethylisoxazole] | 79 | 210
Cn1nccc1Nc1cnc2c(c1)CN(c1nc(N3CCOC(C)(C)C3)nc3ccc(F)cc13)CC2 [Compound 214, 6-[2-(2,2-dimethylmorpholin-4-yl)-6-fluoro-quinazolin-4-yl]-N-(2-methylpyrazol-3-yl)-7,8-dihydro-5H-1,6-naphthyridin-3-amine] | 70 | 830
Fc1cc2ncnc(N3CCc4ncc(C5CC5)cc4C3)c2cc1F [Compound 162, 4-(3-cyclopropyl-7,8-dihydro-5H-1,6-naphthyridin-6-yl)-6,7-difluoro-quinazoline] | 88 | 60
COc1ccc2ncnc(N3CCc4ncc(Nc5cccnc5F)cc4C3)c2c1 [Compound 81, N-(2-fluoro-3-pyridyl)-6-(6-methoxyquinazolin-4-yl)-7,8-dihydro-5H-1,6-naphthyridin-3-amine] | 95 | 460

Further lines, results first:

Emax at 30 µM [%] | EC50 [nM] | SMILES
85 | 2630 | Cc1nc(N2CCc3ncc(-c4cc(F)ccc4C)cc3C2)c2cc(F)ccc2n1 [Compound 295, 6-fluoro-4-(3-(5-fluoro-2-methylphenyl)-7,8-dihydro-1,6-naphthyridin-6(5H)-yl)-2-methylquinazoline]
92 | 300 | Fc1ccc2nc(NC3CCOC3)nc(N3CCc4ncc(C(F)(F)F)cc4C3)c2c1 (stereo not drawn) [Compound 202, 6-fluoro-N-tetrahydrofuran-3-yl-4-[3-(trifluoromethyl)-7,8-dihydro-5H-1,6-naphthyridin-6-yl]quinazolin-2-amine]
97 | 170 | Cc1nc(N2CCc3ncc(-c4cnn(C)c4)cc3C2)c2cc(Cl)ccc2n1 [Compound 46, 6-chloro-2-methyl-4-[3-(1-methylpyrazol-4-yl)-7,8-dihydro-5H-1,6-naphthyridin-6-yl]quinazoline]
93 | 170 | Cc1nc(N2CCc3ncc(-c4cnc(C)s4)cc3C2)c2cc(F)ccc2n1 [Compound 23, 5-[6-(6-fluoro-2-methyl-quinazolin-4-yl)-7,8-dihydro-5H-1,6-naphthyridin-3-yl]-2-methyl-thiazole]
88 | 70 | Cc1nn(C)cc1-c1cnc2c(c1)CN(c1ncnc3ccc(Cl)cc13)CC2 [Compound 6, 6-chloro-4-[3-(1,3-dimethylpyrazol-4-yl)-7,8-dihydro-5H-1,6-naphthyridin-6-yl]quinazoline]
52 | 4360 | COc1ccc2nc(C)nc(N3CCc4ncc(-c5cc(F)ccc5C)cc4C3)c2c1 [Compound 313, 4-(3-(5-fluoro-2-methylphenyl)-7,8-dihydro-1,6-naphthyridin-6(5H)-yl)-6-methoxy-2-methylquinazoline]
74 | 720 | Cc1ccc2nc(N3CCCC3)nc(N3CCc4ncc(C(F)(F)F)cc4C3)c2c1 [Compound 206, 6-methyl-2-pyrrolidin-1-yl-4-[3-(trifluoromethyl)-7,8-dihydro-5H-1,6-naphthyridin-6-yl]quinazoline]
114 | 230 | Cc1nc(N2CCc3ncc(N4CCCn5nccc54)cc3C2)c2cc(Cl)ccc2n1 [Compound 84]
95 | 130 | Cn1nccc1Nc1cnc2c(c1)CN(c1ncnc3ccc(Cl)cc13)CC2 [Compound 106, 6-(6-chloroquinazolin-4-yl)-N-(2-methylpyrazol-3-yl)-7,8-dihydro-5H-1,6-naphthyridin-3-amine]
77 | 1810 | Cc1nc(N2CCc3ncc(C4CC4)cc3C2)c2cc(C(F)(F)F)ccc2n1 [Compound 165, 4-(3-cyclopropyl-7,8-dihydro-5H-1,6-naphthyridin-6-yl)-2-methyl-6-(trifluoromethyl)quinazoline]
93 | 60 | CC1CN(c2ncnc3ccc(F)cc23)Cc2cc(C(F)(F)F)cnc21 (racemic) [Compound 115, 6-fluoro-4-[8-methyl-3-(trifluoromethyl)-7,8-dihydro-5H-1,6-naphthyridin-6-yl]quinazoline]
34 | 410 | Cn1cc(-c2cnc3c(c2)CN(c2nc(Cl)nc4cc(Cl)c(F)cc24)CC3)cn1 [Compound 62, 2,7-dichloro-6-fluoro-4-[3-(1-methylpyrazol-4-yl)-7,8-dihydro-5H-1,6-naphthyridin-6-yl]quinazoline]
75 | 90 | Cc1nc(N2CCc3ncc(C(F)(F)F)cc3C2)c2cc(Cl)ccc2n1 [Compound 134, 6-chlroo-2-methyl-4-[3-(trifluoromethyl)-7,8-dihydro-5H-1,6-naphthyridin-6-yl]quinazoline]
99 | 140 | Cc1nc(N2CCc3ncc(-c4c(C)noc4C)cc3C2)c2cc(Cl)ccc2n1 [Compound 47, 4-[6-(6-chloro-2-methyl-quinazolin-4-yl)-7,8-dihydro-5H-1,6-naphthyridin-3-yl]-3,5-dimethyl-isoxazole]
113 | 510 | Cc1ccc2nc(Cl)nc(N3CCc4ncc(-c5cnn(C6CC6)c5)cc4C3)c2c1 [Compound 30, 2-chloro-4-[3-(1-cyclopropylpyrazol-4-yl)-7,8-dihydro-5H-1,6-naphthyridin-6-yl]-6-methyl-quinazoline]
50 | 3470 | Cc1nc(N2CCc3ncc(N4CCO[C@@H](c5ccccc5)C4)cc3C2)c2cc(F)ccc2n1 [Compound 222, (S)-4-(6-(6-fluoro-2-methylquinazolin-4-yl)-5,6,7,8-tetrahydro-1,6-naphthyridin-3-yl)-2-phenylmorpholine]
95 | 110 | Cc1ccc2nc(Cl)nc(N3CCc4ncc(C(F)(F)F)cc4C3)c2c1 [Compound 119, 2-chloro-6-methyl-4-[3-(trifluoromethyl)-7,8-dihydro-5H-1,6-naphthyridin-6-yl]quinazoline]
